Legend:
Assay type in all cases: biochemical
[1] = target: CDK6/CyclinD1 (Homo sapiens (Human), UniProt Q00534); experiment: CDK6/CyclinD1 kinase inhibitory activity (Caliper mobility shift); conditions: read-out: CDK6/Cyclin D1 IC50
[2] = target: CDK9/CyclinT1 (Homo sapiens (Human), UniProt P50750); experiment: CDK9/CyclinT1 kinase inhibitory activity (Caliper mobility shift); conditions: read-out: CDK9/Cyclin T1 IC50
[3] = target: CDK1/CyclinB (Homo sapiens (Human), UniProt P06493); experiment: CDK1/CyclinB kinase inhibitory activity (Caliper mobility shift); conditions: read-out: CDK1/Cyclin B1 IC50
[4] = target: CDK2/CyclinE1 (Homo sapiens (Human), UniProt P24941); experiment: CDK2/CyclinE1 kinase inhibitory activity (Caliper mobility shift); conditions: read-out: CDK2/Cyclin El IC50
[5] = target: CDK7/CyclinH/MAT1 (Homo sapiens (Human), UniProt P50613); experiment: CDK7/CyclinH/MAT1 kinase inhibitory activity (Caliper mobility shift)
[6] = target: CDK4/Cyclin D1 (Homo sapiens (Human), UniProt P11802); experiment: CDK4/CyclinD1 kinase inhibitory activity (Caliper mobility shift)
Chain of CDK4/Cyclin D1 (P11802 whole entry): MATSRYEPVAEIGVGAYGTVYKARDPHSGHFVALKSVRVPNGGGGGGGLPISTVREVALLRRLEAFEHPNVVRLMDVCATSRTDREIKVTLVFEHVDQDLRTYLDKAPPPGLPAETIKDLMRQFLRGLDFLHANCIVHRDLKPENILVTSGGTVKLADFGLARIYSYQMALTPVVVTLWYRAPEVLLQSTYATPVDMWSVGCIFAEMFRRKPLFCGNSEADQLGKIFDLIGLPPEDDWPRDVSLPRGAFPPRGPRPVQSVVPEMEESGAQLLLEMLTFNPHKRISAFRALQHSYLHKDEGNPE
Chain of CDK4/Cyclin D1 (P24385 whole entry partner): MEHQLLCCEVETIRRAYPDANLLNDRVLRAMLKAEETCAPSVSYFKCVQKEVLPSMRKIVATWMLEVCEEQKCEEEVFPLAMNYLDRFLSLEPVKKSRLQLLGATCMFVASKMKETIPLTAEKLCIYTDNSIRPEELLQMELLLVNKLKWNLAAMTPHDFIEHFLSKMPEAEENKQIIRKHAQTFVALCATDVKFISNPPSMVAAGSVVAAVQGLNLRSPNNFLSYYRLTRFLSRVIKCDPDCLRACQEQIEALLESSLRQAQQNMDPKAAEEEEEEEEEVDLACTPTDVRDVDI

Chain of CDK7/CyclinH/MAT1 (P50613 whole entry): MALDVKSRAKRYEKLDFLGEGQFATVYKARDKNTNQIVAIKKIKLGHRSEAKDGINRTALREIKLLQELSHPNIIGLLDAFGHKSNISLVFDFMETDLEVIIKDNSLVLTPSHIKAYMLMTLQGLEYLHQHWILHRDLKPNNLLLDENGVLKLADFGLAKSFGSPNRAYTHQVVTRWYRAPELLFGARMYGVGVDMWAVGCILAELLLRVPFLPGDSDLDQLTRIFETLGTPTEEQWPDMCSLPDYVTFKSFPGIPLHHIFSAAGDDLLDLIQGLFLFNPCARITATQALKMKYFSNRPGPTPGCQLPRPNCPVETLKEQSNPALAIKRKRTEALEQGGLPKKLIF
Chain of CDK7/CyclinH/MAT1 (P51946 whole entry partner): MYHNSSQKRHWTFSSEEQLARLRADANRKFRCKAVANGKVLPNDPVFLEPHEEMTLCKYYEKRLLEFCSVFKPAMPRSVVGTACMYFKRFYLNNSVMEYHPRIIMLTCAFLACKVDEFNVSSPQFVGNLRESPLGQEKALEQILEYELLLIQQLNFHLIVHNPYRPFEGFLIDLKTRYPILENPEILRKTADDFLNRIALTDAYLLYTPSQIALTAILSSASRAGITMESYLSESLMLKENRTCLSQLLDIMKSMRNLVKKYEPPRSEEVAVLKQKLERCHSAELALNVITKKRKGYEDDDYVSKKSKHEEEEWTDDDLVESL
Chain of CDK7/CyclinH/MAT1 (P51948 whole entry partner): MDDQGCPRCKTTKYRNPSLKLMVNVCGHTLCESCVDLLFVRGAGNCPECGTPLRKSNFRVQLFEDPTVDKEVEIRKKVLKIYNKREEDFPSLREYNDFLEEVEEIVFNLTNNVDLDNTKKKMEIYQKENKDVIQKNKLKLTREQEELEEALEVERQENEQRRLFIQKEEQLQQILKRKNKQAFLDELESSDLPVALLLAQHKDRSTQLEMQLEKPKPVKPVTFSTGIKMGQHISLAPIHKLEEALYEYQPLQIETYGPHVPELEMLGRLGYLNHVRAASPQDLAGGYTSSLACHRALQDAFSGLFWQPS
Chain of CDK9/CyclinT1 (P50750 whole entry): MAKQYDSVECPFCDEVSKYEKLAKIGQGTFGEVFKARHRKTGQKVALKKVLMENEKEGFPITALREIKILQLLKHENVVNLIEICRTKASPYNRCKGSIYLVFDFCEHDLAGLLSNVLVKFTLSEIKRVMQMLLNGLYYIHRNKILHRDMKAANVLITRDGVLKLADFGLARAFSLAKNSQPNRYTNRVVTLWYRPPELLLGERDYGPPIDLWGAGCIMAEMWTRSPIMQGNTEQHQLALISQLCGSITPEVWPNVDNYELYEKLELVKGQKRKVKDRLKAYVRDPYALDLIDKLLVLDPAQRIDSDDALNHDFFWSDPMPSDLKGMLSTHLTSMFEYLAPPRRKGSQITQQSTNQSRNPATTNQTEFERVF
Chain of CDK9/CyclinT1 (O60563 whole entry partner): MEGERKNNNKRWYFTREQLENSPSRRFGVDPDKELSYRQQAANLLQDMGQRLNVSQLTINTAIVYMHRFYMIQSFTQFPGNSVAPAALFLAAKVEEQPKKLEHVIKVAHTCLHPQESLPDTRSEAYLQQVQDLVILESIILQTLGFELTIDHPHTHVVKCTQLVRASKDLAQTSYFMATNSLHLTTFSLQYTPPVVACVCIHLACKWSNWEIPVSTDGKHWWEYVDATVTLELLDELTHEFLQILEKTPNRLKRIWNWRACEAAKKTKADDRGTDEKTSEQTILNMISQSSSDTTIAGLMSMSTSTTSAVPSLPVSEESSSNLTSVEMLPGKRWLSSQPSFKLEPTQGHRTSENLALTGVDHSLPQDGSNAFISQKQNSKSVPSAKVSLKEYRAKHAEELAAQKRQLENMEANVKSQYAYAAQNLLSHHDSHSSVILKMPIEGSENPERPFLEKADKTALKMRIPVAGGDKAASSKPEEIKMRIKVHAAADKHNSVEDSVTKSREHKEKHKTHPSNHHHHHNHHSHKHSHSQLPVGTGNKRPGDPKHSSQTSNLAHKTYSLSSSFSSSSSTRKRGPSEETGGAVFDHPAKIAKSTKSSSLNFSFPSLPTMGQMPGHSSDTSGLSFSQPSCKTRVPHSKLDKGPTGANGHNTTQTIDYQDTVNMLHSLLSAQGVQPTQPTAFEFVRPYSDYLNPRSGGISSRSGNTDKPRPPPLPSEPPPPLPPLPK
Chain of CDK1/CyclinB (P06493 whole entry): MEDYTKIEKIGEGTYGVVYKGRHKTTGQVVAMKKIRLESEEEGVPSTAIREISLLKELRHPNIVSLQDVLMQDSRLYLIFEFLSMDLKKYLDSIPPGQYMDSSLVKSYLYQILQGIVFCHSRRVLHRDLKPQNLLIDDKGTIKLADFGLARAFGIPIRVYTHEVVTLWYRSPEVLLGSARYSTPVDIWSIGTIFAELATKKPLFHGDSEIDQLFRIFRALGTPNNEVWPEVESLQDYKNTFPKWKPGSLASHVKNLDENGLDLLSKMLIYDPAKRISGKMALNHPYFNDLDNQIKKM
Chain of CDK1/CyclinB (P14635 whole entry partner): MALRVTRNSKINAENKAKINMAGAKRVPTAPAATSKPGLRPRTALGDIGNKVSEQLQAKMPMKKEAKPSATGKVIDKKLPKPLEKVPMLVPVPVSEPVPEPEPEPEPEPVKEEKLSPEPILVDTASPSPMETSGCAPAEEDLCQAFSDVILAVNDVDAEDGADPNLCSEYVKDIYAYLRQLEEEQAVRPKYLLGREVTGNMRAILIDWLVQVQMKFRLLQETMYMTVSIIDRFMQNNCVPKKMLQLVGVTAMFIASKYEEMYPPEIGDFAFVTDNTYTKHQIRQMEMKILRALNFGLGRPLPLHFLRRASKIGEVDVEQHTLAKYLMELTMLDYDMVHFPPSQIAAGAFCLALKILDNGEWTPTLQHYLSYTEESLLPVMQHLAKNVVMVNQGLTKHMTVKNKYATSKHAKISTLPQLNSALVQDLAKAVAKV
Chain of CDK6/CyclinD1 (Q00534 whole entry): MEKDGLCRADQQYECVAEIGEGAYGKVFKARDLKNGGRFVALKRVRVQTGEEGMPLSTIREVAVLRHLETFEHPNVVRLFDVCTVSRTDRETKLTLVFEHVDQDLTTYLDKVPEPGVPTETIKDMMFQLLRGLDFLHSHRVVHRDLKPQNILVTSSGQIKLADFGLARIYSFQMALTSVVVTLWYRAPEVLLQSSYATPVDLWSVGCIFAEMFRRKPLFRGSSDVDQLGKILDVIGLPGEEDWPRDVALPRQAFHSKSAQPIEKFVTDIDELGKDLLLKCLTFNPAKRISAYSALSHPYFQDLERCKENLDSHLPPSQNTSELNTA
Chain of CDK6/CyclinD1 (P24385 whole entry partner): as the sequence (P24385 whole entry partner) above

Structure (SMILES)	IC50 [1]	IC50 [2]	IC50 [3]	IC50 [4]	IC50 [5]	IC50 [6]
CC1(C)CCCN(c2nc(Nc3ccc(S(N)(=O)=O)cc3)ncc2C#N)C1 [Example 83]	0.1 to 1 µM	0.01 to 0.1 µM	0.01 to 0.1 µM	< 0.01 µM	≥ 1 µM	
C[C@@H]1CCCN(c2nc(Nc3ccc(S(N)(=O)=O)cc3)ncc2C#N)C1 [Example 72]	0.1 to 1 µM	0.1 to 1 µM	0.1 to 1 µM	0.01 to 0.1 µM	≥ 1 µM	
N#Cc1cnc(Nc2ccc(S(N)(=O)=O)cc2)nc1OCC1CCCC1 [Example 1, 4-((5-cyano-4-(cyclopentylmethoxy)pyrimidin-2-yl)amino)benzenesulfonamide]	≥ 1 µM	0.01 to 0.1 µM	0.01 to 0.1 µM	0.01 to 0.1 µM	≥ 1 µM	
CC1(O)CCCC1Oc1nc(NC2CCN(S(=O)(=O)CC3CCOC3)CC2)ncc1C#N (single isomer, unassigned) [Example 40b]	0.01 to 0.1 µM			0.01 to 0.1 µM	≥ 1 µM	0.01 to 0.1 µM
C[C@]1(O)CCC[C@H]1Oc1nc(NC2CCN(S(C)(=O)=O)CC2)ncc1C#N (relative stereo) [Example 5b, cis-4-((2-hydroxy-2-methylcyclopentyl-4,4-d2)oxy)-2-((1-(methylsulfonyl)piperidin-4-yl)amino)pyrimidine-5-carbonitrile]	0.01 to 0.1 µM	≥ 1 µM	0.1 to 1 µM	0.01 to 0.1 µM		0.1 to 1 µM
C[C@]1(O)COC[C@H]1Oc1nc(NC2CCN(S(C)(=O)=O)CC2)ncc1C(F)(F)F (relative stereo) [Example 104b, cis-3-methyl-4-((2-((1-(methylsulfonyl)piperidin-4-yl)amino)-5-(trifluoromethyl)pyrimidin-4-yl)oxy)tetrahydrofuran-3-ol]	0.1 to 1 µM	≥ 1 µM	0.1 to 1 µM	0.01 to 0.1 µM		0.1 to 1 µM
N#Cc1cnc(Nc2ccc(S(N)(=O)=O)cc2)nc1N1CCCC(c2ccccc2)C1 (single isomer, unassigned) [Example 85]	0.1 to 1 µM	0.1 to 1 µM	0.01 to 0.1 µM	< 0.01 µM	0.1 to 1 µM	
N#Cc1cnc(Nc2ccc(S(N)(=O)=O)cc2)nc1OCC1(CO)CCCCC1 [Example 17]	0.1 to 1 µM	0.1 to 1 µM	0.01 to 0.1 µM	< 0.01 µM	≥ 1 µM	
CC1(O)COCCC1Oc1nc(NC2CCN(S(C)(=O)=O)CC2)ncc1C#N (single isomer, unassigned) [Example 45b]	0.1 to 1 µM	≥ 1 µM	≥ 1 µM	0.1 to 1 µM		0.1 to 1 µM
N#Cc1cnc(Nc2ccc(S(N)(=O)=O)cc2)nc1OCC1(CO)CCCC1 [Example 15]	0.1 to 1 µM	0.1 to 1 µM	0.01 to 0.1 µM	< 0.01 µM	0.1 to 1 µM	
CC1(O)CCCC1Oc1nc(NC2CCN(S(=O)(=O)CC(F)(F)F)CC2)ncc1C#N (single isomer, unassigned) [Example 43b]	0.01 to 0.1 µM			0.01 to 0.1 µM	≥ 1 µM	0.01 to 0.1 µM
NS(=O)(=O)c1ccc(Nc2ncc(F)c(N3CCCCC3)n2)cc1 [Example 86]	≥ 1 µM	0.01 to 0.1 µM	0.01 to 0.1 µM	0.01 to 0.1 µM	≥ 1 µM	
N#Cc1cnc(Nc2ccc(S(=O)(=O)NC3COC3)cc2)nc1N1CCCCC1 [Example 66, 4-((5-cyano-4-(piperidin-1-yl)pyrimidin-2-yl)amino)-N-(oxetan-3-yl)benzenesulfonamide]	0.1 to 1 µM	0.1 to 1 µM	0.01 to 0.1 µM	< 0.01 µM	≥ 1 µM	
N#Cc1cnc(Nc2ccc(S(N)(=O)=O)cc2)nc1-c1ccccc1 [Example 93]	≥ 1 µM	0.1 to 1 µM	0.1 to 1 µM	0.01 to 0.1 µM	≥ 1 µM	
CC1(O)CC(F)(F)CC1Oc1nc(NC2CCN(S(=O)(=O)CC3CC3)CC2)ncc1C#N (single isomer, unassigned) [Example 44a]	0.01 to 0.1 µM	≥ 1 µM	0.1 to 1 µM	0.01 to 0.1 µM		0.1 to 1 µM
CC1(COc2nc(Nc3ccc(S(N)(=O)=O)cc3)ncc2C#N)CCCCC1 [Example 14]	≥ 1 µM	0.1 to 1 µM	0.1 to 1 µM	0.01 to 0.1 µM	≥ 1 µM	
C[C@]1(O)CCC[C@H]1Oc1nc(NC2CCN(S(C)(=O)=O)CC2)ncc1C#N (relative stereo) [Example 5a, cis-4-((2-hydroxy-2-methylcyclopentyl-4,4-d2)oxy)-2-((1-(methylsulfonyl)piperidin-4-yl)amino)pyrimidine-5-carbonitrile]	0.01 to 0.1 µM	0.1 to 1 µM	0.01 to 0.1 µM	< 0.01 µM		< 0.01 µM
C[C@@H]1CCCCN1c1nc(Nc2ccc(S(N)(=O)=O)cc2)ncc1C#N [Example 73]	0.1 to 1 µM	0.1 to 1 µM	0.01 to 0.1 µM	< 0.01 µM	0.1 to 1 µM	
C[C@H]1CCCCN1c1nc(Nc2ccc(S(N)(=O)=O)cc2)ncc1C#N [Example 74]	0.1 to 1 µM	0.1 to 1 µM	0.01 to 0.1 µM	< 0.01 µM	≥ 1 µM	
CC1(O)CCC(F)(F)CC1Oc1nc(NC2CCN(S(C)(=O)=O)CC2)ncc1C#N (single isomer, unassigned) [Example 46a]	0.1 to 1 µM			0.1 to 1 µM		0.1 to 1 µM
C[C@H]1CCCN(c2nc(Nc3ccc(S(N)(=O)=O)cc3)ncc2C#N)C1 [Example 71]	0.1 to 1 µM	0.01 to 0.1 µM	0.01 to 0.1 µM	< 0.01 µM	≥ 1 µM	
C[C@]1(O)CC(F)(F)C[C@H]1Oc1nc(NC2CCN(S(C)(=O)=O)CC2)ncc1C#N (relative stereo) [Example 4b, cis-4-((4,4-difluoro-2-hydroxy-2-methylcyclopentyl)oxy)-2-((1-(methylsulfonyl)piperidin-4-yl)amino)pyrimidine-5-carbonitrile]	0.01 to 0.1 µM	≥ 1 µM	0.1 to 1 µM	0.01 to 0.1 µM		0.1 to 1 µM
N#Cc1cnc(Nc2ccc(S(N)(=O)=O)cc2)nc1-c1ccc(O)cc1 [Example 92, 4-((5-cyano-4-(4-hydroxyphenyl)pyrimidin-2-yl)amino)benzenesulfonamide]	0.1 to 1 µM	0.1 to 1 µM	0.01 to 0.1 µM	< 0.01 µM	≥ 1 µM	
Cn1cc(S(=O)(=O)N2CCC(Nc3ncc(C#N)c(OC4CCCC4(C)O)n3)CC2)cn1 (single isomer, unassigned) [Example 48b]	0.01 to 0.1 µM	≥ 1 µM	0.01 to 0.1 µM	< 0.01 µM		0.01 to 0.1 µM

More lines, now with the values ahead:

IC50 [1]	IC50 [2]	IC50 [3]	IC50 [4]	IC50 [5]	IC50 [6]	Structure (SMILES)
0.1 to 1 µM			0.01 to 0.1 µM	0.1 to 1 µM	0.1 to 1 µM	Cn1cc(S(=O)(=O)N2CCC(Nc3ncc(C(F)(F)F)c(OC4CCOCC4(C)O)n3)CC2)cn1 (single isomer, unassigned) [Example 125b]
0.01 to 0.1 µM			< 0.01 µM	0.1 to 1 µM	0.01 to 0.1 µM	Cn1cnc(S(=O)(=O)N2CCC(Nc3ncc(C#N)c(OC4CCCC4(C)O)n3)CC2)n1 (single isomer, unassigned) [Example 51a]
0.1 to 1 µM	≥ 1 µM	≥ 1 µM	0.1 to 1 µM		0.1 to 1 µM	CC1(O)COCCC1Oc1nc(NC2CCN(S(C)(=O)=O)CC2)ncc1C(F)(F)F (single isomer, unassigned) [Example 124b]
			< 0.01 µM		≥ 1 µM	CNS(=O)(=O)c1ccc(Nc2ncc(C(F)(F)F)c(OC3CCOCCC3O)n2)cc1 (single isomer, unassigned) [Example 102c, 4-((4-((5-hydroxyoxepan-4-yl)oxy)-5-(trifluoromethyl)pyrimidin-2-yl)amino)-N-(methyl-d3)benzenesulfonamide]
			< 0.01 µM		≥ 1 µM	CNS(=O)(=O)c1ccc(Nc2ncc(C(F)(F)F)c(OC3CCOCCC3O)n2)cc1 (single isomer, unassigned) [Example 102d, 4-((4-((5-hydroxyoxepan-4-yl)oxy)-5-(trifluoromethyl)pyrimidin-2-yl)amino)-N-(methyl-d3)benzenesulfonamide]
			< 0.01 µM		≥ 1 µM	CNS(=O)(=O)c1ccc(Nc2ncc(C(F)(F)F)c(OC3CCOCCC3O)n2)cc1 (single isomer, unassigned) [Example 102b, 4-((4-((5-hydroxyoxepan-4-yl)oxy)-5-(trifluoromethyl)pyrimidin-2-yl)amino)-N-(methyl-d3)benzenesulfonamide]
≥ 1 µM					≥ 1 µM	CNS(=O)(=O)c1ccc(Nc2ncc(C(F)(F)F)c(O[C@H]3CCOC[C@H]3O)n2)c(F)c1 (single isomer, unassigned) [Example 101b, cis-3-fluoro-4-((4-((3-hydroxytetrahydro-2H-pyran-4-yl)oxy)-5-(trifluoromethyl)pyrimidin-2-yl)amino)-N-(methyl-d3)benzenesulfonamide]
		0.1 to 1 µM		≥ 1 µM	≥ 1 µM	[2H]C([2H])([2H])NS(=O)(=O)c1ccc(Nc2ncc(C(F)(F)F)c(O[C@H]3CCCOC[C@H]3O)n2)cc1 (single isomer, unassigned) [Example 103b, cis-4-((4-((3-hydroxyoxepan-4-yl)oxy)-5-(trifluoromethyl)pyrimidin-2-yl)amino)-N-(methyl-d3)benzenesulfonamide]

From patent publication US20240166635A1, “AMINOHETEROARYL KINASE INHIBITORS” (Anrui Biomedical Technology (Guangzhou) Co.,Ltd., priority 2020, published 2024)
